≈ marks a conversion by molar mass, not a printed value. Where “and” joins values, the source holds several entries; their conditions need not be identical. Identical values can stand only once. Like-named read-outs stand apart in the source and are kept apart here.
Assays:
[1] = Solubility in water, methanol, cyclohexane and ethyl acetate by HPLC; format: physicochemical
Method: (§1) Mobile phase: acetonitrile-methanol (1 : 1); flow rate: 1.0 ml min^−1; injection volume: 20 µl; wavelength: 230 nm or 254 nm; column temperature: 25°C.
Five millilitres of water, methanol, cyclohexane and ethyl acetate was added to test tubes, and then samples (DD4 or DD5) were added. These solutions were shaken at constant temperature (37 ± 0.1)°C for 48 h. The supernatant was taken to determine its solubility with HPLC [14]. Solutions of tested sample beyond the linear concentration range were diluted with methanol for determination.

[2] = Apparent lipid-water (n-octanol/water) partition coefficient by HPLC; format: physicochemical; parameters: key: —: Cannot be detected; details: for lgP: 37 °C, HPLC of aqueous phase; for apparent lipid-hydro partition coefficient found: HPLC
Method: as §1
DD4 (5.1 mg) was dissolved in 50 ml of water-saturated n-octanol solution to prepare a solution with a concentration of 102 mg l^−1. Solution (2 ml) and water-saturated n-octanol solution (2 ml) were added to a plugged 10 ml tube. The prepared sample solution was placed in a shaker and shaken to equilibrium overnight in the dark at constant temperature (37 ± 0.1)°C. The lower aqueous phase was taken and analysed by HPLC after centrifugation at a speed of 3000 r min^−1 for 10 min. The drug concentration in the aqueous phase (ρw) was calculated via the standard curve according to the peak area. DD5 (4.5 mg) was dissolved in 50 ml of water-saturated n-octanol solution to prepare a solution with a concentration of 90 mg l^−1. Other methods were the same as those for DD4 [14].

[3] = tested on: human aortic vascular smooth muscle cells (HAVSMCs); assay: Drug absorption in human aortic vascular smooth muscle cells (HPLC of cell supernatant); format: in vitro ADME; details: for value (drug concentration in cell supernatant): dosing DD4 171, DD5 120 ug/mL; for maximum cell absorption rate relative to DAI: compared with DAI; for absorptivity (maximum absorption rate): maximum (at 1 h)
Method: (§2) HAVSMCs were obtained from resuscitation in cryopreservation tubes. HAVSMCs at passages 3–10 were seeded at a density of 10^5 in 6-well plates, 2 ml per well. The cells were cultured at 37°C in a 5% carbon dioxide incubator for 24 h to adhere to the cell wall; cells were cultured in serum-free DMEM for 24 h. The cells were synchronized, the supernatant was carefully aspirated and different concentrations of drug solution were added to the DMEM culture medium containing 10% serum. Equal amounts of DMEM culture medium without drugs were added to the blank group. Each group was set up in triplicate and further cultured. The cultures were terminated at 0.5, 1, 6, 12, 24 or 48 h. Cell culture supernatants were collected and stored at −80°C for further analysis.
Cell supernatants were thawed at room temperature and vortexed for 1 min. To 50 µl of the cell supernatant, 50 µl of methanol was added and the mixtures were mixed uniformly by eddy current. Ethyl acetate (1 ml) was added to the mixture and vortexed for 3 min. Ethyl acetate was separated by cooled centrifugation at 3000 r min^−1 and dried with nitrogen, and the residue was dissolved in 500 µl of methanol before injection for analysis.
Mobile phase: methanol-phosphoric acid solution (0.4%) (1 : 1); flow rate: 0.5 ml min^−1; injection volume: 10 µl; wavelength: 230 nm or 254 nm; column temperature 25°C.
Cell supernatants were thawed and vortexed for 1 min. Drug-added supernatant (50 µl) was treated by the same method as the pre-treatment of cell samples described in §4.2.
The absorption and utilization rates of DD4 and DD5 were calculated by the formula (6.1), with the reduction of drug concentration in the cell culture medium taken as the absorption amount of drug by cells. The initial drug concentration was c0, and the concentration in the cell supernatant at other time points is denoted as c. […] With increasing time, the cell absorption rate of the drug was maintained at about 60%. The main reason for the differences in absorption of DD4 and DD5 might be the length of the substituent group (methyl, ethyl) on the 7-position:6.1 absorption rate=c0−c/c0×100%.

[4] = tested on: human aortic vascular smooth muscle cells (HAVSMCs); assay: Cell metabolism in HAVSMCs by HPLC-MS; format: in vitro ADME; details: for metabolite identified (chemical name): HAVSMC lysate, 24 h incubation, HPLC-MS negative ion mode; for metabolites found in cell lysate: HAVSMCs incubated 24 h, HPLC-MS, also found in supernatant; for redox products in HAVSMCs: preliminary analysis of metabolic components
Method: as §2
Mobile phase: methanol-formic acid (1 : 1); flow rate: 0.5 ml min^−1; injection volume: 10 µl; wavelength: 254 nm; column temperature: 25°C.
A triple quadrupole tandem precision mass spectrometer (Agilent 6430) with an […] source and a negative ion mode was used for precise determination. The full mass spectrum data were obtained in the range of m/z 50–1000. The optimal mass spectrum parameters were as follows: the capillary voltage was 4.0 kV; the injection cone voltage was 35 V; the desolvation gas flow (N2) rate was 900 l h^−1; the injection cone gas flow (N2) rate was 50 l h^−1; the desolvation temperature was 350°C; the ion source temperature was 150°C; the collision gas in collision induced dissociation (CID) mode was helium with high purity; the inlet pressure was set at 40 psi; the CID collision energy of the standard was 5–35 eV and the cracking voltage was 135 V.
The cell supernatant was thawed and vortexed for 0.5 min. Cell supernatant (50 µl) and […] (50 µl) were added to a 2 ml centrifuge tube and vortexed for 3 min. Ammonium dihydrogen phosphate (100 µl, 0.4%) and 1 ml of ethyl acetate were added, and the sample was vortexed for 3 min. The mixture was centrifuged at 3000 r min^−1 for 10 min. The supernatant (95 µl) was aspirated and dried by N2 flow. […] (500 µl) was added and the sample was vortexed for 0.5 min. After filtration over a 0.45 µm organic membrane, HPLC-MS analysis was carried out.
Cells from the −80°C stock were thawed at room temperature, and 1 ml of thawed cell lysate was added into each well of a 6-well plate. From each group, 0.5 ml of cell lysate was taken; 50 µl of […], 100 µl of ammonium dihydrogen phosphate (0.4%) and 1 ml of ethyl acetate were added and samples were vortexed for 3 min. Lysate (95 µl) was aspirated and dried by N2 flow. […] (500 µl) was added and samples were vortexed for 0.5 min. After filtration over a 0.45 µm organic membrane, HPLC-MS analysis was carried out.

[5] = tested on: vascular smooth muscle cells; assay: Cytotoxicity by MTT assay; format: cell-based; details: 300 ug/mL
Source text: […] 2) Please list the full name of “HAVSMCs”at the first time it appears.
We have listed the full name of “HAVSMCs” as its first appearance in the abstract of […]
[…] 3) Please number the carbon atoms of the compounds.
[…] 4) Line 19-36: The abstract can reflect all aspects of the work, but it is a bit long and too detailed. The authors should rephrase the abstract for a more concise […]
We have rewritten the section of abstract and tried to make it as concise as possible.
[…] 5) As far as I'm aware, daidzein as a biologically active natural product has been used for curing angiocardiopathy. But whether the synthesized daidzeinnapsylates have significant toxic side effects remain unknown. So, in vitro cytotoxicity […]
A549, HeLa cells) need be performed.
The cytotoxicity of DD4 and DD5 was determined by MTT assay in our lab before […]
the two compounds was less than 10% at the concentration of 300 ug/mL. It is considered that the compound is not toxic to vascular smooth muscle cells at this concentration. Therefore, the dosing concentrations of DD4 and DD5 were 171 and 120 ug/mL, respectively, to investigate the absorption and metabolism of drugs by […]
6)Please attach the 1H-NMR specturm of DD4 and DD5 in supporting information;

[6] = Solubility in water, methanol, cyclohexane and ethyl acetate by HPLC; format: physicochemical; details: organic solvent or mixture, thermodynamic from solid, head: hexane (text: cyclohexane), 37 °C, shaken 48 h
[7] = water with a pH of 7.8; cited from earlier work
[8] = parameters: method as in ref 23 = [23]; 23 Zhang ZT , Liu QG , Liu XH , Yang BL , Duan YF , Gao ZW , Yu KB 2002 Synthesis, crystal structure and biological activity of monomethylated daidzein sulfonates . Acta Chim. Sinica 60 , 1846 – 1853; details: compared with DAI; cited from earlier work
[9] = cited from earlier work
[10] = parameters: key: —: Cannot be detected; details: DAI ref 14; cited from earlier work
[11] = parameters: method as in ref 9 = [9]; 9 Chou F 2005 Pharmacokinetics of daidzein and its precursors . Shenyang, People's Republic of China : Shenyang Pharmaceutical University .; details: rats, intragastric administration of DAI solution; cited from earlier work
[12] = at pH 7.4, 410 K, DAI ref 16, cited from earlier work
[13] = organic solvent or mixture, thermodynamic from solid, methanol, 37 °C, shaken 48 h, HPLC, read-out: solubility methanol
[14] = thermodynamic from solid, water, 37 °C, shaken 48 h, HPLC, read-out: solubility water
[15] = water, Table 5, read-out: solubility in water

| solubility at 48 h [1, 13] [µg/mL] | solubility at 48 h [1, 14] [µg/mL] | solubility in water ([1]; water, 37 °C) | solubility at 48 h [1, 15] [µg/mL] | lgP [2] | apparent lipid-hydro partition coefficient found [2] | time of peak (maximum) absorption [3] [h] | value (drug concentration in cell supernatant) ([3]; 0.5 h) [µg/mL] | value (drug concentration in cell supernatant) ([3]; 1 h) | value (drug concentration in cell supernatant) ([3]; 6 h) [µg/mL] | value (drug concentration in cell supernatant) ([3]; 12 h) [µg/mL] | value (drug concentration in cell supernatant) ([3]; 24 h) [µg/mL] | value (drug concentration in cell supernatant) ([3]; 48 h) [µg/mL] | maximum cell absorption rate relative to DAI [3] | absorptivity (maximum absorption rate) [3] [%] | metabolites found in cell lysate [4] | redox products in HAVSMCs [4] | melting point [°C] | solubility at 48 h [6] [µg/mL] | Molecule | cell inhibition rate [5] | further results |
| --- | --- | --- | --- | --- | --- | --- | --- | --- | --- | --- | --- | --- | --- | --- | --- | --- | --- | --- | --- | --- | --- |
| 824 ± 19.3 (≈ 1800 µM) | < 0.059 | too poor to be detected | < 0.059 | —^b | —^b | 1 | 96.97 ± 15.57 | 20.62 µg/mL and 20.62 ± 0.71 µg/mL | 110.70 ± 4.98 | 82.48 ± 3.00 | 71.01 ± 34.97 | 111.28 ± 1.72 | 4.3 times and 4.3–4.5 times | 87.97 | Four metabolites were found | no redox products | 144 to 156 | 509 ± 49 (≈ 1110 µM) | COc1ccc2c(=O)c(-c3ccc(OS(=O)(=O)c4ccc5ccccc5c4)cc3)coc2c1 [DD4] | less than 10% | solubility at 48 h ([1]; ethyl acetate, 37 °C, shaken 48 h, HPLC, read-out: solubility ethanoate (ethyl acetate)): 36300 µg/mL (≈ 79200 µM); metabolite identified (chemical name) [4]: daidzein-4'-naphthalene sulphonate |
|  |  |  |  |  |  |  |  |  |  |  |  |  |  |  |  |  |  |  | O=C(O)COc1ccc(-c2coc3cc(OCCO)ccc3c2=O)cc1 [4-oxoacetic acid-7-hydroxyethoxy-daidzein] |  | solubility in water [7]: 54.28 µg/mL (≈ 152 µM) |
|  |  |  |  |  |  |  |  |  |  |  |  |  |  |  |  |  |  |  | sodium daidzein sulphonate |  | anti-hypoxic-ischaemic effect [8]: obviously better than that of DAI |
| 2470 ± 72.4 (≈ 5230 µM) | < 0.059 | too poor to be detected | < 0.059 | —^b | —^b | 1 | 88.31 ± 4.25 | 11.59 ± 0.08 µg/mL | 44.60 ± 3.91 | 47.13 ± 15.99 | 50.34 ± 1.31 | 29.29 ± 2.50 | 4.5 times and 4.3–4.5 times | 90.34 | Six metabolites were found | no redox products | 151 to 153 | 69.7 ± 20.8 (≈ 148 µM) | CCOc1ccc2c(=O)c(-c3ccc(OS(=O)(=O)c4ccc5ccccc5c4)cc3)coc2c1 [DD5] | less than 10% | metabolite identified (chemical name) ([4]; metabolite DAI): daidzein; metabolite identified (chemical name) ([4]; metabolite M2): daidzein-4'-naphthalene sulphonate; metabolite identified (chemical name) ([4]; metabolite M4 or/and M4a): daidzein-4'-glucoside or daidzein-7-glucoside; metabolite identified (chemical name) ([4]; metabolite M5): 7-ethyldaidzein; metabolite identified (chemical name) ([4]; metabolite M6): daidzein-7-ethyl-4'-glucoside; metabolite identified (chemical name) ([4]; metabolite M7): daidzein-7-ethyl-4'-sulphonic acid |
|  |  |  |  |  |  |  |  |  |  |  |  |  |  |  |  |  |  |  | O=c1c(-c2ccc(O)cc2)coc2cc(O)ccc12 [DAI, 4′, 7-dihydroxyisoflavone] |  | solubility in ethyl acetate ([9]; Table 5, DAI ref 16): 0.13 ± 0.11 µg/mL (≈ 0.511 µM); solubility in cyclohexane ([9]; cyclohexane, DAI ref 14): could not be determined; solubility in water ([9]; water, DAI ref 14): too poor to be detected; lgP [10]: —^b; absolute bioavailability calculated on the basis of free DAI [11]: 12.8%; dissociation constant (percentage of drug prototypes) calculated value [12]: 10.41%; molecular polar surface area/two-dimensional calculated value [12]: 66.76 Å^2; molecular surface area/three-dimensional calculated value [12]: 315.07 Å^2; polarizability calculated value [12]: 26.21; refractivity calculated value [12]: 69.70; H-bond accepter site ([12]; first figure of site/count): 5; H-bond accepter count ([12]; second figure of site/count): 4 |

From publication PMC7890489, “Study on pharmacological properties and cell absorption metabolism of novel daidzein napsylates” (Royal Society Open Science, 2021)
